Assays:
[1] = tested on: Sardinian Alcohol preferring rats (sP); assay: Alcohol Deprivation Effect in deprived sP rats; type: in vivo, rat
Procedure: (§1) Tests were carried out in Sardinian Alcohol preferring rats (sP), i.e. a rodent line genetically selected for their spontaneous alcohol consume. These animals were adopted as the main specific animal model in the research program due to the fact that these rats (kept in a free-choice regimen between water and a 10% ethanol solution) consume large amounts of alcohol (6-7 g/Kg/day), sharing a great preference for […] (80-100%).
(§2) Under the standard, these rats are subjected to homecage two-bottle free choice regimen between 10% alcohol and water with unlimited access (24 h/day) and they show these features: daily intake of about 6 g/Kg of alcohol; preference ratio (alcohol solution vs total fluids) above 80%; fractioning of daily alcohol intake in 3-4 binges; achievement of BALs (Blood Alcohol Levels) above 50 mg % at each binge; induction of pharmaceutical effects (anxiolysis, motor stimulation) and regulation by a central, hedonic set-point mechanism.
2. Alcohol Deprivation Effect in Deprived sP Rats
To further characterize the anti-alcohol effect of polymorphic Form A, this compound was evaluated on the Alcohol Deprivation Effect (ADE). […] Intake was measured 1 hour after lights off.

[2] = tested on: rats; assay: Proconvulsant activity in rats (pentylenetetrazol); type: in vivo, rat; conditions: with pentylenetetrazol
Procedure: (§3) The possible adverse effects of polymorphic Form A on the CNS, cardiovascular, respiratory and immune functions were evaluated in vitro and in vivo (rats and dogs) in different experimental models. In the in vivo tests, the tested compound was always given by single oral administration at the doses of 100, 300 and 1000 mg/kg.

[3] = molecular target: T1, HERG tail current (Homo sapiens, UniProt Q12809); assay: HERG tail current, patch clamp in HEK-293 cells; type: cell-based
T1 construct: expressed in transfected cells; host or cells: HEK-293
T1 sequence (Q12809 whole entry): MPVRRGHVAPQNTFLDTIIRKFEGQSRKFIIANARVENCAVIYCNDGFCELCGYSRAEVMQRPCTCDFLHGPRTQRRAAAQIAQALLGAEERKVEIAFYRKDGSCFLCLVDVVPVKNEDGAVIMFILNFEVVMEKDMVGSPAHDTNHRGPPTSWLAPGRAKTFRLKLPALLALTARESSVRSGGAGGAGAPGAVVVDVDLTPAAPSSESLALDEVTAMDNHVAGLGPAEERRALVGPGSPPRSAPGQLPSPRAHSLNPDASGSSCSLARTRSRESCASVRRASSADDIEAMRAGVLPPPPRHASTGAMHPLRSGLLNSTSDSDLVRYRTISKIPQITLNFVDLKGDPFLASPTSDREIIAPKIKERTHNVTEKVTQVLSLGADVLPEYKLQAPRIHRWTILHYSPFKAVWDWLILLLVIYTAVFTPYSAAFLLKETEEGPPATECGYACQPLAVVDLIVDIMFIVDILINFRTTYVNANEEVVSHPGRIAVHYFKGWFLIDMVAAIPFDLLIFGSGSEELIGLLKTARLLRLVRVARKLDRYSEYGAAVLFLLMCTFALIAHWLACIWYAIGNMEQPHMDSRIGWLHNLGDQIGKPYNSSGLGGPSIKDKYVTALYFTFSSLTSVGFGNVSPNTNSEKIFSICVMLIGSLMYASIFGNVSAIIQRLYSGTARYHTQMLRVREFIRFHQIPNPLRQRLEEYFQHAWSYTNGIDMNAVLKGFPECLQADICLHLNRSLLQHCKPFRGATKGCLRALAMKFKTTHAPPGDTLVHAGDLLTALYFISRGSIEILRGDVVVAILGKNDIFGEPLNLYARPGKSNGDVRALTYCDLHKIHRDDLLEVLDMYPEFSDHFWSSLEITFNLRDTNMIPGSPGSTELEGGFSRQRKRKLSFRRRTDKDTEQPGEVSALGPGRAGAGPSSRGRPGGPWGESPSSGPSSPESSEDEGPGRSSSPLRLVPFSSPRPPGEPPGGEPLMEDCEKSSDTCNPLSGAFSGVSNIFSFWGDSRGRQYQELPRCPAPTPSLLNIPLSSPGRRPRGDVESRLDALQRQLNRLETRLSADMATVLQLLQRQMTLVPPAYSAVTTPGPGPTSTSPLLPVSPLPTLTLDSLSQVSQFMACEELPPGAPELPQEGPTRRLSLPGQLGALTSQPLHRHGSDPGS
Source text: A possible blocking effect of polymorphic Form A on Herg tail current recorded from HEK-293 cells (Human Embryonic Kidney cells) stably transfected with HERGG-1 cDNA was investigated. The method consisted in measuring the HERG tail current by using the patch clamp techniques in the whole cell configuration. Compounds which inhibited HERG current were recognized to prolong the cardiac action potential and increase QT interval.

[4] = tested on: conscious dogs; assay: Cardiovascular evaluation in conscious dogs (telemetry); type: in vivo, dog
Procedure: as §3
Any possible effect of polymorphic Form A administered at the doses of 100, 300 and 1000 mg/kg by oral route on blood pressure, heart rate and electrocardiogram was evaluated in conscious dogs, free to move about, previously instrumented with telemetric transmitters. In the first part of the study, only telemetric measurements were recorded; the recording of the parameters started at least 24 hours before the administration of the compound and were continued for 24 hours following dosing. In the second part, only the highest dose of 1000 mg/kg was administered and complementary investigations such as 6-lead electrocardiogram (leads I, II, III, aVL, aVR and aVF), blood sampling and observation of the animals were performed before treatment and 3 hours post-treatment.

[5] = tested on: isolated canine Purkinje fibres; assay: Cardiac action potential in isolated canine Purkinje fibres
Procedure: A possible adverse effect induced by polymorphic Form A on cardiac action potential was evaluated in isolated canine Purkinje fibres. Transmembrane action potential was measured by means of the intracellular microelectrode technique; this method is recommended to detect the capacity of a substance to induce prolongation of the QT interval.

[6] = tested on: conscious rats; assay: Respiratory evaluation in conscious rats (whole body plethysmography); type: in vivo, rat
Procedure: as §3
The effect of polymorphic Form A on respiratory parameters (respiratory rate, peak inspiratory and peak expiratory flows, inspiration and expiration times, airway resistance index, minute volume and tidal volume) was assessed in conscious rats after single oral administration. Respiration was measured by the whole body plethysmography method.

[7] = tested on: Sardinian Alcohol preferring rats (sP); assay: Spontaneous alcohol intake in non deprived sP rats; type: in vivo, rat
Procedure: as §1, §2
1. Spontaneous Alcohol Intake in Non Deprived sP Rats
According to this model, the alcohol intake in a two bottles free-choice regimen represents the “active drinking” phase of human alcoholism. Therefore the tested active compounds should decrease the propension of rats to consume alcohol. […] In FIG. 8A the results of a single experiment are shown. Specifically 10, 20, 25 and 50 mg/kg doses of polymorphic Form A were administered and the alcohol intake was evaluated.

In the case of `COCCCC(=O)NCc1ccc(C(F)(F)F)cc1` [Polymorphic Form A, N-[4-(trifluoromethyl)benzyl]-4-methoxybutyramide], the “Extra-consume of alcohol (ADE)” value ([1]; 5 mg/Kg) is reported as “completely abolish the extra-consume of alcohol”, the “Alcohol Deprivation Effect (ADE)” value ([1]; dose range 5-100 mg/Kg, given 30 min before lights off, intake 1 hour after lights off) is reported as “completely suppressed ADE effect” and the “Time of occurrence of seizures” value ([2]; 100 and 300 mg/kg oral) is reported as “increase in the time of occurrence of seizures”. For the same compound, the Proconvulsant effect ([2]; all the doses (100, 300, 1000 mg/kg oral)) was “no statistical significant proconvulsant effect”, the “Reduction of HERG tail current” value ([3]; 10^−4 M, highest concentration tested) was “about 50%” and the “Inhibition of HERG tail current” value ([3]; 10^−6 and 10^−5 M) was “slight and non dose-dependent decrease”. The “Inhibition of HERG tail current” value ([3]; 10^−7 M) was “no statistically significant inhibition”, the “Inhibition of HERG tail current, highest value reached” value ([3]; all concentrations, 70% is the threshold for an active compound) was under 70% and the “Blood pressure, heart rate and electrocardiogram tracing” value ([4]; 100 mg/kg oral) was “did not induce relevant changes”. For the same compound, the Presence in plasma ([4]; 1000 mg/kg oral, 3 hours after the administration) was “confirmed the presence”, the 6-lead electrocardiogram ([4]; 1000 mg/kg oral, before and 3 hours after dosing) was “No disturbance in the 6-lead electrocardiogram” and the Vomiting ([4]; 1000 mg/kg oral, between 0.5 and 17 hours after dosing) was “All animals vomited”. For the same compound, the “Arterial blood pressure (mean, systolic and diastolic)” value ([4]; 300 and 1000 mg/kg oral) was “slight increase in arterial blood pressure”, the “PR and PQ interval durations” value ([4]; 300 and 1000 mg/kg oral) was “slight decrease in PR and PQ interval durations” and the “QT interval duration corrected for heart rate (Sarma's method)” value ([4]; 300 and 1000 mg/kg oral) was “slight increase in QT interval duration”. For the same compound, the “Electrocardiogram (lead II), T wave morphology” value ([4]; all the doses tested) was “No disturbance in the electrocardiogram (lead II)”, the “Action potential duration of repolarisation” value ([5]; 10^−4 M) was “significant decrease in action potential duration of repolarisation” and the Action potential parameters ([5]; 10^−7, 10^−6 and 10^−5 M, normal or low stimulation rates) was “no statistically significant effect”. For the same compound, the “Early or delayed after-depolarisation” value ([5]; all the concentrations tested) was “neither early nor delayed after-depolarisation were recorded”, the Respiratory parameters ([6]; 100 mg/kg single oral) was “no relevant effect on respiratory parameters” and the “Peak inspiratory and peak expiratory flows, minute volume, airway resistance index” value ([6]; 100, 300 and 1000 mg/kg single oral) was “No statistically change”. For the same compound, the “Respiratory rate and tidal volume” value ([6]; 300 and 1000 mg/kg single oral) was “tachypnoea associated to a transient reduction in tidal volume”, the Alcohol intake ([7]; 10 mg/kg, single experiment of FIG. 8A) was “significantly reduced alcohol intake” and the Alcohol intake ([7]; 10-100 mg/kg, intragastric acute administration) was “decreases the alcohol intake”. For the same compound, the Food intake ([7]; sP rats, data not reported) was “normal food intake” and the Water intake ([7]; sP rats, data not reported) was “compensatory increase of water intake”.
